Where a name gives a salt, the structure may show the parent alone. Read-outs that look alike come from different tables or passages of the source.
Tested on: HIV-1 strain 92HT599
Test: Antiviral activity, p24 estimation in HIV-1 92HT599 infected MT2 cells
Format: cell-based
Conditions: ~96 hours
Procedure: MT2 cells were infected with HIV-1 strain 92HT599 (10 TCID 50/30000 cells). The infected cells were plated at the concentration of ˜30,000 cells per well in 96 well plate. Test compound was added to the micro plate in defined format with the final concentration of DMSO (vehicle) is not more than 1%. Incubation was carried out in CO2 incubator for ˜96 hours for viral infection. At the end of incubation period an aliquot from each well was taken for p24 estimation. The quantitation of p24 is an index for antiviral activity of the compound. Percent inhibition was calculated with reference to control values (vehicle controls). P-24 estimation was carried out using Advance biosciences kit as per the procedure detailed by supplier.

[1] = Human immunodeficiency virus 1, 0% serum, read-out: 92HT599-Antiviral activity IC50 (nM) 0%
[2] = Human immunodeficiency virus 1, 40% serum, read-out: 92HT599-Antiviral activity IC50 (nM) 40%

| Structure (SMILES) | IC50 [1] | IC50 [2] |
| --- | --- | --- |
| CC(C)C1=C2[C@H]3CC[C@@H]4[C@@]5(C)CC[C@H](OC(=O)[C@H]6C[C@@H](C(=O)O)C6(C)C)C(C)(C)[C@@H]5CC[C@@]4(C)[C@]3(C)CC[C@@]2(NC(=O)N(CCN(C)C)Cc2ccc(Cl)cc2)CC1=O [Example 1, (1R,3S)-3-((((3aR,5aR,5bR,7aR,9S,11aR,11bR,13aS)-3a-(3-(4-chlorobenzyl)-3-(2-(dimethylamino)ethyl)ureido)-1-isopropyl-5a,5b,8,8,11a-pentamethyl-2-oxo-3,3a,4,5,5a,5b,6,7,7a,8,9,10,11,11a,11b,12,13,13a-octadecahydro-2H-cyclopenta[a]chrysen-9-yl)oxy)carbonyl)-2,2-dimethylcyclobutane-1-carboxylic acid hydrochloride] | < 5 nM | > 50 nM |
| CC(C)C1=C2[C@H]3CC[C@@H]4[C@@]5(C)CC[C@H](OC(=O)[C@H]6C[C@@H](C(=O)O)C6(C)C)C(C)(C)[C@@H]5CC[C@@]4(C)[C@]3(C)CC[C@@]2(NC(=O)N2CCC[C@H]2c2ncc(-c3ccccc3)n2CCN(C)C)CC1=O [Example 2, (1R,3S)-3-((((3aR,5aR,5bR,7aR,9S,11aR,11bR,13aS)-3a-((S)-2-(1-(2-(dimethylamino)ethyl)-5-phenyl-1H-imidazol-2-yl)pyrrolidine-1-carboxamido)-1-isopropyl-5a,5b,8,8,11a-pentamethyl-2-oxo-3,3a,4,5,5a,5b,6,7,7a,8,9,10,11,11a,11b,12,13,13a-octadecahydro-2H-cyclopenta[a]chrysen-9-yl)oxy)carbonyl)-2,2-dimethylcyclobutane-1-carboxylic acid] | < 5 nM | < 30 nM |
| CC(C)C1=C2[C@H]3CC[C@@H]4[C@@]5(C)CC[C@H](OC(=O)[C@H]6C[C@@H](C(=O)O)C6(C)C)C(C)(C)[C@@H]5CC[C@@]4(C)[C@]3(C)CC[C@@]2(NC(=O)N2CCC[C@H]2c2ncc(-c3ccccc3)[nH]2)CC1=O [Example 3, (1R,3S)-3-((((3aR,5aR,5bR,7aR,9S,11aR,11bR,13aS)-1-isopropyl-5a,5b,8,8,11a-pentamethyl-2-oxo-3a-((S)-2-(5-phenyl-1H-imidazol-2-yl)pyrrolidine-1-carboxamido)-3,3a,4,5,5a,5b,6,7,7a,8,9,10,11,11a,11b,12,13,13a-octadecahydro-2H-cyclopenta[a]chrysen-9-yl)oxy)carbonyl)-2,2-dimethylcyclobutane-1-carboxylic acid] | 5.01 to 10 nM | 30 to 50 nM |
| CC(C)C1=C2[C@H]3CC[C@@H]4[C@@]5(C)CC[C@H](OC(=O)[C@H]6C[C@@H](C(=O)O)C6(C)C)C(C)(C)[C@@H]5CC[C@@]4(C)[C@]3(C)CC[C@@]2(NC(=O)NC2(c3ccc(Cl)cc3)CC2)CC1=O [Example 4, (1R,3S)-3-((((3aR,5aR,5bR,7aR,9S,11aR,11bR,13aS)-3a-(3-(1-(4-chlorophenyl)cyclopropyl)ureido)-1-isopropyl-5a,5b,8,8,11a-pentamethyl-2-oxo-3,3a,4,5,5a,5b,6,7,7a,8,9,10,11,11a,11b,12,13,13a-octadecahydro-2H-cyclopenta[a]chrysen-9-yl)oxy)carbonyl)-2,2-dimethylcyclobutane-1-carboxylic acid] | < 5 nM | > 50 nM |
| CC(C)C1=C2[C@H]3CC[C@@H]4[C@@]5(C)CC[C@H](OC(=O)[C@H]6C[C@@H](C(=O)O)C6(C)C)C(C)(C)[C@@H]5CC[C@@]4(C)[C@]3(C)CC[C@@]2(NC(=O)NC(C)(C)c2ccc(Cl)cc2)CC1=O [Example 5, (1R,3S)-3-((((3aR,5aR,5bR,7aR,9S,11aR,11bR,13aS)-3a-(3-(2-(4-chlorophenyl)propan-2-yl)ureido)-1-isopropyl-5a,5b,8,8,11a-pentamethyl-2-oxo-3,3a,4,5,5a,5b,6,7,7a,8,9,10,11,11a,11b,12,13,13a-octadecahydro-2H-cyclopenta[a]chrysen-9-yl)oxy)carbonyl)-2,2-dimethylcyclobutane-1-carboxylic acid] | < 5 nM | < 30 nM |
| CC(C)C1=C2[C@H]3CC[C@@H]4[C@@]5(C)CC[C@H](OC(=O)[C@H]6C[C@@H](C(=O)O)C6(C)C)C(C)(C)[C@@H]5CC[C@@]4(C)[C@]3(C)CC[C@@]2(NC(=O)N(CCN(C)C)CC2(c3ccc(Cl)cc3)CC2)CC1=O [Example 6, (1R,3S)-3-((((3aR,5aR,5bR,7aR,9S,11aR,11bR,13aS)-3a-(3-((1-(4-chlorophenyl)cyclopropyl)methyl)-3-(2-(dimethylamino)ethyl)ureido)-1-isopropyl-5a,5b,8,8,11a-pentamethyl-2-oxo-3,3a,4,5,5a,5b,6,7,7a,8,9,10,11,11a,11b,12,13,13a-octadecahydro-2H-cyclopenta[a]chrysen-9-yl)oxy)carbonyl)-2,2-dimethylcyclobutane-1-carboxylic acid] | < 5 nM | 30 to 50 nM |
| CC(C)C1=C2[C@H]3CC[C@@H]4[C@@]5(C)CC[C@H](OC(=O)[C@H]6C[C@@H](C(=O)O)C6(C)C)C(C)(C)[C@@H]5CC[C@@]4(C)[C@]3(C)CC[C@@]2(NC(=O)NCc2ccc(Cl)cc2)CC1=O [Example 7, (1R,3S)-3-((((3aR,5aR,5bR,7aR,9S,11aR,11bR,13aS)-3a-(3-(4-chlorobenzyl)ureido)-1-isopropyl-5a,5b,8,8,11a-pentamethyl-2-oxo-3,3a,4,5,5a,5b,6,7,7a,8,9,10,11,11a,11b,12,13,13a-octadecahydro-2H-cyclopenta[a]chrysen-9-yl)oxy)carbonyl)-2,2-dimethylcyclobutane-1-carboxylic acid] | 5.01 to 10 nM | 30 to 50 nM |
| Cc1nnc(C(C)C)n1C1CC2CCC(C1)N2C(=O)N[C@@]12CC[C@]3(C)[C@H](CC[C@@H]4[C@@]5(C)CC[C@H](OC(=O)[C@H]6C[C@@H](C(=O)O)C6(C)C)C(C)(C)[C@@H]5CC[C@]43C)C1=C(C(C)C)C(=O)C2 (stereo partly drawn) [Example 8, (1R,3S)-3-((((3aR,5aR,5bR,7aR,9S,11aR,11bR,13aS)-1-isopropyl-3a-((1R,3S,5S)-3-(3-isopropyl-5-methyl-4H-1,2,4-triazol-4-yl)-8-azabicyclo[3.2.1]octane-8-carboxamido)-5a,5b,8,8,11a-pentamethyl-2-oxo-3,3a,4,5,5a,5b,6,7,7a,8,9,10,11,11a,11b,12,13,13a-octadecahydro-2H-cyclopenta[a]chrysen-9-yl)oxy)carbonyl)-2,2-dimethylcyclobutane-1-carboxylic acid] | 5.01 to 10 nM | > 50 nM |
| CC(C)C1=C2[C@H]3CC[C@@H]4[C@@]5(C)CC[C@H](OC(=O)[C@H]6C[C@@H](C(=O)O)C6(C)C)C(C)(C)[C@@H]5CC[C@@]4(C)[C@]3(C)CC[C@@]2(NC(=O)NC(C)(C)c2ncc(-c3ccccc3)[nH]2)CC1=O [Example 10, (1R,3S)-3-((((3aR,5aR,5bR,7aR,9S,11aR,11bR,13aS)-1-isopropyl-5a,5b,8,8,11a-pentamethyl-2-oxo-3a-(3-(2-(5-phenyl-1H-imidazol-2-yl)propan-2-yl)ureido)-3,3a,4,5,5a,5b,6,7,7a,8,9,10,11,11a,11b,12,13,13a-octadecahydro-2H-cyclopenta[a]chrysen-9-yl)oxy)carbonyl)-2,2-dimethylcyclobutane-1-carboxylic acid] | < 5 nM | < 30 nM |
| CC(C)C1=C2[C@H]3CC[C@@H]4[C@@]5(C)CC[C@H](OC(=O)[C@H]6C[C@@H](C(=O)O)C6(C)C)C(C)(C)[C@@H]5CC[C@@]4(C)[C@]3(C)CC[C@@]2(NC(=O)N(CCN2CCCCC2)Cc2ccc(Cl)cc2)CC1=O [Example 11, (1R,3S)-3-((((3aR,5aR,5bR,7aR,9S,11aR,11bR,13aS)-3a-(3-(4-chlorobenzyl)-3-(2-(piperidin-1-yl)ethyl)ureido)-1-isopropyl-5a,5b,8,8,11a-pentamethyl-2-oxo-3,3a,4,5,5a,5b,6,7,7a,8,9,10,11,11a,11b,12,13,13a-octadecahydro-2H-cyclopenta[a]chrysen-9-yl)oxy)carbonyl)-2,2-dimethylcyclobutane-1-carboxylic acid hydrochloride] | < 5 nM | 30 to 50 nM |
| Cc1nnc(C(C)C)n1CCN1CCN(C(=O)N[C@@]23CC[C@]4(C)[C@H](CC[C@@H]5[C@@]6(C)CC[C@H](OC(=O)[C@H]7C[C@@H](C(=O)O)C7(C)C)C(C)(C)[C@@H]6CC[C@]54C)C2=C(C(C)C)C(=O)C3)CC1 [Example 12, (1R,3S)-3-((((3aR,5aR,5bR,7aR,9S,11aR,11bR,13aS)-1-isopropyl-3a-(4-(2-(3-isopropyl-5-methyl-4H-1,2,4-triazol-4-yl)ethyl)piperazine-1-carboxamido)-5a,5b,8,8,11a-pentamethyl-2-oxo-3,3a,4,5,5a,5b,6,7,7a,8,9,10,11,11a,11b,12,13,13a-octadecahydro-2H-cyclopenta[a]chrysen-9-yl)oxy)carbonyl)-2,2-dimethycyclobutane-1-carboxylic acid] | > 10 nM | > 50 nM |
| CC(C)C1=C2[C@H]3CC[C@@H]4[C@@]5(C)CC[C@H](OC(=O)[C@H]6C[C@@H](C(=O)O)C6(C)C)C(C)(C)[C@@H]5CC[C@@]4(C)[C@]3(C)CC[C@@]2(NC(=O)N2CCC[C@H]2CN2CCCC2)CC1=O [Example 13, (1R,3S)-3-((((3aR,5aR,5bR,7aR,9S,11aR,11bR,13aS)-1-isopropyl-5a,5b,8,8,11a-pentamethyl-2-oxo-3a-((S)-2-(pyrrolidin-1-ylmethyl)pyrrolidine-1-carboxamido)-3,3a,4,5,5a,5b,6,7,7a,8,9,10,11,11a,11b,12,13,13a-octadecahydro-2H-cyclopenta[a]chrysen-9-yl)oxy)carbonyl)-2,2-dimethylcyclobutane-1-carboxylic acid] | < 5 nM | > 50 nM |
